# Patent US10548933B2, “Method for preparing broccoli protein peptide mixture” (ZHEJIANG HISUN PHARMACEUTICAL CO., LTD., priority 2015, dated 2020)
# Assay: DPPH free radical scavenging rate method (antioxidant capacity)
# Format: biochemical
# Settings: 30 min, dark, 517 nm, average of three
# Experimental: The antioxidant capacity was determined with the neutral protease and trypsin-digested peptide prepared in example 2, as well as the alkaline protease-digested peptide, the trypsin-digested peptide, the neutral protease-digested peptide, the papain-digested peptide and the pepsin-digested peptide prepared in example 3 used as samples, with soybean protein peptide and reduced glutathione used as controls (DPPH free radical scavenging rate method).
# (1) DPPH (1,1-diphenyl-2-picrylhydrazyl) (25 mg) was weighed accurately, dissolved in absolute ethanol and the volume reached to 250 mL in a brown volumetric flask, DPPH solution with the concentration of 0.1 mg/mL was obtained and was kept in dark place to be supplied as standby.
# (2) 1.0 mL sample solutions with different concentrations (100 mg/mL, 10 mg/mL, 1 mg/mL, 0.1 mg/mL) were taken, the solutions were placed in a 10 mL colorimetric tube respectively, 4.0 ml DPPH solution was added, the mixture was reacted at room temperature in a dark place for 30 minutes.
# (3) The absorbance value was measured at 517 nm with the absolute ethanol as blank. The DPPH free radical scavenging rate was calculated according to the following formula. DPPH free radical scavenging rate (%)=[…] • In the formula. A0—the absorbance value of 1.0 mL distilled water+3.0 mL solution • As—the absorbance value of 1.0 mL sample solution+3.0 mL DPPH solution • Ac—the absorbance value of 1.0 mL sample solution+3.0 mL absolute ethanol.
# The experiment was repeated for three times, the average value of the scavenging rate was obtained (if the solution was turbid, the measurement was taken after centrifugation).
compound,measurement,setting,value
"N[C@@H](CCC(=O)N[C@@H](CS)C(=O)NCC(=O)O)C(=O)O [Reduced glutathione (GSH), Reduced glutathione]",DPPH free radical scavenging rate,sample concentration 0.1 mg/ml,30.8%
same,DPPH free radical scavenging rate,sample concentration 1 mg/ml,72.1%
same,DPPH free radical scavenging rate,sample concentration 10 mg/ml,90.9%
same,DPPH free radical scavenging rate,sample concentration 100 mg/ml,95.9%
